From US8063012B2, “Neuroprotective peptide inhibitors of AP-1 signaling and uses therefor” (Phylogica Limited, priority 2006, dated 2011)
Non-standard residues stand in square brackets, D forms with d. Residues, ends and D or L forms follow the SMILES beside them.

Key:
[1] = rabbit blood; cited from earlier work
[2] = system: primary cortical neuronal cultures; test: Glutamate excitotoxicity in primary cortical neuronal cultures, neuronal viability by MTS assay; assay type: cell-based, rat; conditions: Sprague-Dawley, rat, 18 h
Procedure: Neurons were resuspended in Neurobasal (NB; Invitrogen) containing 2% B27 supplement (B27; Invitrogen). Before seeding, culture vessels comprising either a 96-well plastic plate or 24-well plastic plate with 13 mm glass coverslips (ProSciTech, Australia), were coated with poly-D-lysine (50 μg/mL; 70-150K; Sigma) and incubated overnight at room temperature. […] Neurons were plated to obtain approximately 10,000 viable neurons for each well of a 96-well plate, or 200,000 viable neurons per well of a 24-well plate, on day in vitro (DIV) […]. […] On DIV 4, one third of the culture medium was removed and replaced with fresh NB/2% B27 containing the mitotic inhibitor, cytosine arabinofuranoside (Sigma) at 1 μM concentration. On DIV 8, one half of the culture medium was replaced with NB/2% B27.
To induce glutamate excitotoxicity in the cortical neuronal cultures (96-well plate format), 50 μl of conditioned media containing 200 μM glutamate was added to culture wells containing 50 μl conditioned media (100 μM final glutamate concentration). Cultures were incubated at 37° C. in a CO2 incubator for 5 minutes, after which time the media was replaced with 100 μl of 50% NB/2% N2 and 50% balance salt solution (NB/N2:BSS).
Untreated and glutamate-treated control samples received media additions with and without glutamate respectively.
Eighteen hours after glutamate exposure, neuronal cultures were examined by light microscopy for qualitative assessment of neuronal damage. Neuronal viability was quantitatively measured by 3-(4,5,dimethyliazol-2-yl)-5-(3-carboxymethoxy-phenyl)-2-(4-sulfophenyl)-2H-tetrazolium salt (MTS) assay (Promega, Australia). The MTS assay measures the mitochondrial conversion of the tetrazolium salt to a water-soluble brown formazan salt, which is detected spectrophotometrically at 495 nm. MTS absorbance data was converted to reflect proportional cell viability relative to both the untreated and glutamate treated controls. […] All assays were performed with quadruplicate sister neuronal cultures repeated a minimum of four times independently.

in vivo = conditions: male, Sprague-Dawley, rat, iv, 3 mg/kg
Procedure: Male Sprague-Dawley rats (276-310 g) were dosed with peptide by i.v injection via the jugular vein. The calculated dose for each animal was 3 mg/kg of body weight and each isoflurane anaesthetised animal received dosing volumes of 0.1 ml/100 g of body weight of a 3 mg/ml solution. The remaining dosing solutions were subjected to a similar protocol as the solutions that were administered to the animals and were collected pre-labeled Maxymum Recovery (Axygen Scientific) low binding tubes, ready for quantification. Blood samples (0.2 ml) were collected just prior to dosing (pre-dose) and at various time points post-dosing according to the experimental schedule. Blood samples were collected from the jugular vein from the anaesthetized and transferred into 0.5 ml pre-labeled EDTA micro-centrifuge tubes and placed on ice. The tubes were then centrifuged for 5 mins at 3,000 RPM in a bench top microcentrifuge (4° C.). The plasma was transferred to pre-labeled 1.7 ml tubes, stored in a −80° C. freezer prior to analysis by LC-MS.
Analysis: Sample Preparation: 50 μl of plasma was added to 150 μl of precipitating solvent (75% acetonitrile/25% water+2% formic acid) and vortexed for 15 sec. The solution was centrifuged at 11,000 rpm at 4° C. for 5 mins. 100 μl of the supernatant was transferred to a HPLC vial for quantification. […]

in vitro = in vitro ADME; conditions: human, plasma
Procedure: A stock solution of 200 μg/ml of peptide in PBS was diluted into 1.5 ml of human plasma or PBS to achieve a final concentration of 10 μg/ml. Of this solution, 50 μl was then dispensed into 200 μl Max Recovery tubes (Axygen Scientific) in triplicate for each time point needed in the study. The tubes were incubated at 37° C. and at the appropriate time point, they were removed from the incubator and 150 μl of extraction solution (75% acetonitrile/25% water+2% formic acid) was added. The tubes were vortexed for 15 sec and then centrifuged at 11,000 RPM for 5 mins at 4° C. Then, 100 μl of the supernatant was transferred into HPLC vials for analysis.
A fixed mobile phase was used so that all of the different charged species of peptide would elute at the same time, allowing a mass measurement of non-degraded material. Injection volume: 10 μl; Column: Phenomenex Aqua C18 5 μM 150 mm×4.6 mm; Flow: 0.8 ml/min; 85% Mobile phase A: 4% formic acid in nanopure water; 15% Mobile phase B: acetonitrile; RT: 1.3 minutes; Stop time: 3.0 minutes. Mass Spectrometer: MS-03 LC/MSD Trap XCT Ultra.

## tissue plasminogen activator [tPA]
[1]
  in vivo half life: a few minutes

## CC[C@@H](C)[C@@H](NC(=O)[C@@H](CCC(=O)O)NC(=O)[C@@H](CO)NC(=O)[C@@H](CO)NC(=O)[C@@H](CO)NC(=O)[C@@H](CCCCN)NC(=O)[C@@H](CCCNC(=N)N)NC(=O)[C@@H](CCC(=O)O)NC(=O)[C@H](N)CCCNC(=N)N)C(=O)NCC(=O)NCC(=O)N[C@H](CO)C(=O)N[C@H](CCCNC(=N)N)C(=O)N[C@@H](C(=O)N[C@H](CO)C(=O)N[C@H](CCC(N)=O)C(=O)N[C@H](Cc1ccc(O)cc1)C(=O)N[C@H](C)C(=O)NCC(=O)N[C@H](CCCNC(=N)N)C(=O)N[C@H](CCCNC(=N)N)C(=O)N[C@H](CCCNC(=N)N)C(=O)N[C@H](CCC(N)=O)C(=O)N[C@H](CCCNC(=N)N)C(=O)N[C@H](CCCNC(=N)N)C(=O)N[C@H](CCCCN)C(=O)N[C@H](CCCCN)C(=O)N[C@H](CCCNC(=N)N)C(=O)NCC(=O)O)[C@H](C)CC [PYC35D-TAT] (H-[dR][dE][dR][dK][dS][dS][dS][dE][dI]GG[dS][dR][dI][dS][dQ][dY][dA]G[dR][dR][dR][dQ][dR][dR][dK][dK][dR]G-OH; N-terminus and C-terminus assumed)
[2]; 5 μM
  neuronal viability following glutamate excitotoxicity: 59%
In vivo
  half-life: 0.583 h
In vitro
  half-life at 10 μg/ml: > 12 h

## CC[C@@H](C)[C@@H](NC(=O)[C@@H](CCCCN)NC(=O)[C@H]1CCCN1)C(=O)N[C@H](CO)C(=O)N[C@H](CCC(N)=O)C(=O)N[C@H](Cc1ccc(O)cc1)C(=O)NCC(=O)N[C@H](CCC(N)=O)C(=O)N[C@H](CCCNC(=N)N)C(=O)N[C@H](CCCNC(=N)N)C(=O)N[C@H](CCCNC(=N)N)C(=O)NCC(=O)N[C@H](CCC(N)=O)C(=O)N[C@H](CC(C)C)C(=O)NCC(=O)NCC(=O)N[C@H](CCCNC(=N)N)C(=O)N[C@H](CCCNC(=N)N)C(=O)N[C@H](CCCNC(=N)N)C(=O)N[C@H](CCC(N)=O)C(=O)N[C@H](CCCNC(=N)N)C(=O)N[C@H](CCCNC(=N)N)C(=O)N[C@H](CCCCN)C(=O)N[C@H](CCCCN)C(=O)N[C@H](CCCNC(=N)N)C(=O)NCC(=O)O [PYC36D-TAT] (H-[dP][dK][dI][dS][dQ][dY]G[dQ][dR][dR][dR]G[dQ][dL]GG[dR][dR][dR][dQ][dR][dR][dK][dK][dR]G-OH; N-terminus and C-terminus assumed)
[2]; 1 μM
  neuronal viability following glutamate excitotoxicity: 44%
[2]; 5 μM
  neuronal viability following glutamate excitotoxicity: 82%
In vivo
  half-life: 1.67 h
In vitro
  half-life at 10 μg/ml: > 12 h
